According to patent US7015228B2, “4-amino-2-(2-pyridyl)pyrimidines as microbicidal active substances” (Ciba Specialty Chemicals Corporation, priority 2001, dated 2006):
≈ marks a conversion by molar mass, not a printed value.

What was measured:
[1] = tested on: Escherichia coli NCTC 8196; assay: Minimum inhibitory concentration (MIC) in microtitre plates; assay type: cell-based
How it was run: (§1)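 Compounds in DMSO, 1:2 dilution series; bacteria at 1–5×10^6 CFU/ml diluted 1:100 in CASO broth. Incubation 48 h at 37° C, growth read as OD 620 nm. MIC is the lowest concentration giving ≤20% growth relative to control; duplicates.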

[2] = tested on: Staphylococcus hominis DMS 20328; assay: as above; assay type: cell-based; details: Table 7; 48 hours at 37° C.; MIC = ≦20% growth compared to control
How it was run: as §1

[3] = tested on: Trichophyton mentagrophytes ATCC 9533; assay: Minimum inhibitory concentration (MIC), further microorganisms; assay type: cell-based; details: Table 8; * = significant inhibition of growth, but not complete inhibition
How it was run: (§2)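 Organisms at 1–5×10^6 CFU/ml were diluted 1:100 into CASO broth (bacteria, yeast) or Sabouraud 2% glucose broth (mould) over 1:2 DMSO dilution series of compound. Bacteria and yeast were incubated 48 h at 37 °C and mould 5 days at 28 °C. MIC is the lowest concentration giving ≤20% growth versus control by OD620, in duplicate.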

[4] = tested on: Micrococcus luteus ATCC 9341; assay: as above; assay type: cell-based; details: Table 8; * = significant inhibition of growth, but not complete inhibition
How it was run: as §2

[5] = tested on: Pseudomonas aeruginosa CIP A-22; assay: as above; assay type: cell-based; details: Table 8
How it was run: as §2

[6] = tested on: Epidermophyton floccosum DSM 10709; assay: as above; assay type: cell-based; details: Table 8; * = significant inhibition of growth, but not complete inhibition
How it was run: as §2

[7] = tested on: Klebsiella pneumonia ATCC 4352; assay: as above; assay type: cell-based; details: Table 8; * = significant inhibition of growth, but not complete inhibition
How it was run: as §2

[8] = tested on: Enterococcus hirae ATCC 10541; assay: as above; assay type: cell-based; details: Table 8; * = significant inhibition of growth, but not complete inhibition
How it was run: as §2

[9] = tested on: Candida albicans ATCC 10231; assay: as above; assay type: cell-based; details: Table 8; * = significant inhibition of growth, but not complete inhibition
How it was run: as §2

[10] = tested on: Aspergillus niger ATCC 6275; assay: as above; assay type: cell-based; details: Table 8; * = significant inhibition of growth, but not complete inhibition
How it was run: as §2

[11] = tested on: Staphylococcus aureus ATCC 9144; assay: as above; assay type: cell-based; details: Table 8; * = significant inhibition of growth, but not complete inhibition
How it was run: as §2

[12] = tested on: S. epidermidis ATCC 12228; assay: as above; assay type: cell-based; details: Table 8; * = significant inhibition of growth, but not complete inhibition
How it was run: as §2

[13] = tested on: Salmonella choleraesuis ATCC 10708; assay: as above; assay type: cell-based; details: Table 8
How it was run: as §2

S. aureus ATCC 6538 = assay: Determination of the bactericidal activity (logarithmic reduction in organism count); assay type: cell-based, Staphylococcus aureus; details: contact for 30 minutes at a substance concentration of 120 μg/mL
Description: (§3) Determination of the Bactericidal Activity of Selected Compounds
(§4) Casein-soybean flour-peptone broth for preparation of pre-cultures of test bacteria
(§5) Examples of Test Organisms:
(§6) • Staphylococcus aureus ATCC 6538 • Escherichia coli ATCC 10536 • Salmonella choleraesuis ATCC 10708 Procedure:
(§7) The test substances are dissolved in dimethyl sulfoxide (DMSO) and tested in a concentration of 120 μg/ml.
(§8) Bacteria are incubated overnight in CASO broth and adjusted to an organism count of 1–5×10^5 CFU/ml using 0.85% sodium chloride solution.
(§9) The test substances are pre-pipetted into microtitre plates in amounts of 8 μl per well.
(§10) The adjusted test organism suspensions are added in amounts of 192 μl per well to the test substances and mixed. After defined contact times, the test batches are mixed, an aliquot is withdrawn and diluted in several steps in a dilution series of 1:10 in a suitable inactivation medium.
The test plates are incubated for 24 hours at 37° C.
After incubation, the growth is determined on the basis of the turbidity of the test batches (optical density) at 620 nm in a microplate reader.
(§11) One microtitre plate is used for each test organism.
(§12) All the substances are tested in duplicate.

[14] = tested on: S. choleraesuis ATCC 10708; assay: as above; assay type: cell-based, Salmonella choleraesuis; details: contact for 30 minutes at a substance concentration of 120 μg/mL
Description: as §3, §4, §5, §6, §7, §8, §9, §10
The test plates are incubated for 24 hours at 37° C. […]
as §11, §12

E. coli NCTC 8196 = assay: as above; assay type: cell-based, Escherichia coli; details: contact for 30 minutes at a substance concentration of 120 μg/mL

CC(C)(C)c1cc(NCCCCCCCCCN)nc(-c2ccccn2)n1 [compound 54]
Minimum inhibitory concentration (MIC) E. coli ([1]; Table 7, 48 hours at 37° C., MIC = ≦20% growth compared to control): 120 µg/mL (≈ 325 µM)
Minimum inhibitory concentration (MIC) E. coli NCTC 8196 ([1]; Table 8, * = significant inhibition of growth, but not complete inhibition): >60 µg/mL
Minimum inhibitory concentration (MIC) S. hominis [2]: 30 µg/mL (≈ 81.2 µM)
Minimum inhibitory concentration (MIC) Trichophyton mentagrophytes ATCC 9533 [3]: >60 µg/mL
Minimum inhibitory concentration (MIC) Micrococcus luteus ATCC 9341 [4]: 15 µg/mL (≈ 40.6 µM)
Minimum inhibitory concentration (MIC) Pseudomonas aeruginosa CIP A-22 [5]: >60 µg/mL
Minimum inhibitory concentration (MIC) Epidermophyton floccosum DSM 10709 [6]: >60 µg/mL
Minimum inhibitory concentration (MIC) Klebsiella pneumonia ATCC 4352 [7]: >60 µg/mL
Minimum inhibitory concentration (MIC) Enterococcus hirae ATCC 10541 [8]: >60 µg/mL
Minimum inhibitory concentration (MIC) Candida albicans ATCC 10231 [9]: >60 µg/mL
Minimum inhibitory concentration (MIC) Aspergillus niger ATCC 6275 [10]: >60 µg/mL
Minimum inhibitory concentration (MIC) Staphylococcus aureus ATCC 9144 [11]: *60 μg/mL
Minimum inhibitory concentration (MIC) S. epidermidis ATCC 12228 [12]: >60 µg/mL
Minimum inhibitory concentration (MIC) Salmonella choleraesuis ATCC 10708 [13]: >60 µg/mL

Cc1nc(-c2ccccn2)nc(NCCCCCCCCN)c1C(C)C [Compound of formula 65]
Logarithmic reduction in organism count, S. aureus ATCC 6538 (S. aureus ATCC 6538): 3 log
Logarithmic reduction in organism count, S. choleraesuis ATCC 10708 [14]: <1 log
Logarithmic reduction in organism count, E. coli NCTC 8196 (E. coli NCTC 8196): <1 log

CCCCCCCCCCCCCCCNc1nc(-c2ccccn2)nc(C)c1CC [Compound of formula 90]
Logarithmic reduction in organism count, S. aureus ATCC 6538 (S. aureus ATCC 6538): 2 log
Logarithmic reduction in organism count, S. choleraesuis ATCC 10708 [14]: <1 log
Logarithmic reduction in organism count, E. coli NCTC 8196 (E. coli NCTC 8196): <1 log

CCCCCCCCCNc1nc(-c2ccccn2)nc(C)c1C(C)C [Compound of formula 70]
Logarithmic reduction in organism count, S. aureus ATCC 6538 (S. aureus ATCC 6538): ≦1 log
Logarithmic reduction in organism count, S. choleraesuis ATCC 10708 [14]: <1 log
Logarithmic reduction in organism count, E. coli NCTC 8196 (E. coli NCTC 8196): ≦1 log

CCCCCCCNc1cc(C(F)(F)F)nc(-c2ccccn2)n1 [Compound of formula 32]
Logarithmic reduction in organism count, S. aureus ATCC 6538 (S. aureus ATCC 6538): <1 log
Logarithmic reduction in organism count, S. choleraesuis ATCC 10708 [14]: ≦1 log
Logarithmic reduction in organism count, E. coli NCTC 8196 (E. coli NCTC 8196): <1 log

CCCCCCCCCCNc1cc(CCOC)nc(-c2ccccn2)n1 [Compound of formula 83]
Logarithmic reduction in organism count, S. aureus ATCC 6538 (S. aureus ATCC 6538): 2 log
Logarithmic reduction in organism count, S. choleraesuis ATCC 10708 [14]: <1 log
Logarithmic reduction in organism count, E. coli NCTC 8196 (E. coli NCTC 8196): ≦1 log

CCCCCCCCCCNc1cc(C)nc(-c2ccccn2)n1 [Compound of formula 23]
Logarithmic reduction in organism count, S. aureus ATCC 6538 (S. aureus ATCC 6538): 3 log
Logarithmic reduction in organism count, S. choleraesuis ATCC 10708 [14]: <1 log
Logarithmic reduction in organism count, E. coli NCTC 8196 (E. coli NCTC 8196): <1 log

CCCCCCCCCCCCNc1cc(C)nc(-c2ccccn2)n1 [Compound of formula 24]
Logarithmic reduction in organism count, S. aureus ATCC 6538 (S. aureus ATCC 6538): 2 log
Logarithmic reduction in organism count, S. choleraesuis ATCC 10708 [14]: <1 log
Logarithmic reduction in organism count, E. coli NCTC 8196 (E. coli NCTC 8196): ≦1 log

COCCc1cc(NCCCCCCCCN)nc(-c2ccccn2)n1 [Compound of formula 77]
Logarithmic reduction in organism count, S. aureus ATCC 6538 (S. aureus ATCC 6538): >3 log
Logarithmic reduction in organism count, S. choleraesuis ATCC 10708 [14]: <1 log
Logarithmic reduction in organism count, E. coli NCTC 8196 (E. coli NCTC 8196): <1 log

CCCCCCCCCCCNc1cc(C)nc(-c2ccccn2)n1 [Compound of formula 92]
Logarithmic reduction in organism count, S. aureus ATCC 6538 (S. aureus ATCC 6538): >3 log
Logarithmic reduction in organism count, S. choleraesuis ATCC 10708 [14]: ≦1 log
Logarithmic reduction in organism count, E. coli NCTC 8196 (E. coli NCTC 8196): <1 log

CCCCCCCCNc1nc(-c2ccccn2)nc(C)c1CC [Compound of formula 9]
Logarithmic reduction in organism count, S. aureus ATCC 6538 (S. aureus ATCC 6538): <1 log
Logarithmic reduction in organism count, S. choleraesuis ATCC 10708 [14]: <1 log
Logarithmic reduction in organism count, E. coli NCTC 8196 (E. coli NCTC 8196): <1 log

CCCCCCCCNc1cc(C)nc(-c2ccccn2)n1 [Compound of formula 21]
Logarithmic reduction in organism count, S. aureus ATCC 6538 (S. aureus ATCC 6538): 1–2 log
Logarithmic reduction in organism count, S. choleraesuis ATCC 10708 [14]: <1 log
Logarithmic reduction in organism count, E. coli NCTC 8196 (E. coli NCTC 8196): <1 log

CCCCCCCCCNc1cc(C)nc(-c2ccccn2)n1 [Compound of formula 22]
Logarithmic reduction in organism count, S. aureus ATCC 6538 (S. aureus ATCC 6538): 1–2 log
Logarithmic reduction in organism count, S. choleraesuis ATCC 10708 [14]: <1 log
Logarithmic reduction in organism count, E. coli NCTC 8196 (E. coli NCTC 8196): <1 log

CCCCCCCCCCCCCCCCNc1cc(C(F)(F)F)nc(-c2ccccn2)n1 [Compound of formula 37]
Logarithmic reduction in organism count, S. aureus ATCC 6538 (S. aureus ATCC 6538): 1–2 log
Logarithmic reduction in organism count, S. choleraesuis ATCC 10708 [14]: <1 log
Logarithmic reduction in organism count, E. coli NCTC 8196 (E. coli NCTC 8196): <1 log

CC(C)(C)c1cc(NCCc2ccccc2)nc(-c2ccccn2)n1 [Compound of formula 63]
Logarithmic reduction in organism count, S. aureus ATCC 6538 (S. aureus ATCC 6538): <1 log
Logarithmic reduction in organism count, S. choleraesuis ATCC 10708 [14]: <1 log
Logarithmic reduction in organism count, E. coli NCTC 8196 (E. coli NCTC 8196): ≦1 log

NCCCCCCCCCNc1cc(C(F)(F)F)nc(-c2ccccn2)n1 [Compound of formula 30]
Logarithmic reduction in organism count, S. aureus ATCC 6538 (S. aureus ATCC 6538): ≦1 log
Logarithmic reduction in organism count, S. choleraesuis ATCC 10708 [14]: ≦1 log
Logarithmic reduction in organism count, E. coli NCTC 8196 (E. coli NCTC 8196): <1 log

CCCCCCCCCCNc1cc(C(F)(F)F)nc(-c2ccccn2)n1 [Compound of formula 35]
Logarithmic reduction in organism count, S. aureus ATCC 6538 (S. aureus ATCC 6538): <1 log
Logarithmic reduction in organism count, S. choleraesuis ATCC 10708 [14]: <1 log
Logarithmic reduction in organism count, E. coli NCTC 8196 (E. coli NCTC 8196): <1 log

CCCCCCCCCNc1cc(C(C)(C)C)nc(-c2ccccn2)n1 [Compound of formula 58]
Logarithmic reduction in organism count, S. aureus ATCC 6538 (S. aureus ATCC 6538): 1 log
Logarithmic reduction in organism count, S. choleraesuis ATCC 10708 [14]: ≦1 log
Logarithmic reduction in organism count, E. coli NCTC 8196 (E. coli NCTC 8196): ≦1 log

CC(C)c1cc(NCCCCCCCCCN)nc(-c2ccccn2)n1 [Compound of formula 42]
Logarithmic reduction in organism count, S. aureus ATCC 6538 (S. aureus ATCC 6538): 2 log
Logarithmic reduction in organism count, S. choleraesuis ATCC 10708 [14]: <1 log
Logarithmic reduction in organism count, E. coli NCTC 8196 (E. coli NCTC 8196): ≦1 log

CCCCCCCCCCCNc1nc(-c2ccccn2)nc(C)c1CC [Compound of formula 89]
Logarithmic reduction in organism count, S. aureus ATCC 6538 (S. aureus ATCC 6538): 2 log
Logarithmic reduction in organism count, S. choleraesuis ATCC 10708 [14]: ≦1 log
Logarithmic reduction in organism count, E. coli NCTC 8196 (E. coli NCTC 8196): ≦1 log

CCCCCCCCCCCCNc1cc(C(C)(C)C)nc(-c2ccccn2)n1 [Compound of formula 60]
Logarithmic reduction in organism count, S. aureus ATCC 6538 (S. aureus ATCC 6538): <1 log
Logarithmic reduction in organism count, S. choleraesuis ATCC 10708 [14]: <1 log
Logarithmic reduction in organism count, E. coli NCTC 8196 (E. coli NCTC 8196): <1 log
